One test deals with α-glucosidase (Saccharomyces cerevisiae, UniProt P53341). The experiment in a line: α-glucosidase inhibition assay (pNPG). In kind it is biochemical. The conditions noted are these: mean ± SE, three replicates. On the procedure: In vitro enzymatic assessments
The mixture was then left at
The absorbance was measured
the enzymatic activity. […] The IC50

For another test, the system named is diabetic mice. Set-up: method as in PMID 38029465. The conditions noted are these: cited from earlier work.
Details of test [1]: method as in PMID 39143406. The conditions noted are these: cited from earlier work.
The target in a further test is COX-2 enzyme. Also on record: method as in PMID 39143406. The conditions noted are these: cited from earlier work.

The term IC50 denotes the concentration at which inhibition is half-maximal.

α-glucosidase, sequence (P53341 whole entry): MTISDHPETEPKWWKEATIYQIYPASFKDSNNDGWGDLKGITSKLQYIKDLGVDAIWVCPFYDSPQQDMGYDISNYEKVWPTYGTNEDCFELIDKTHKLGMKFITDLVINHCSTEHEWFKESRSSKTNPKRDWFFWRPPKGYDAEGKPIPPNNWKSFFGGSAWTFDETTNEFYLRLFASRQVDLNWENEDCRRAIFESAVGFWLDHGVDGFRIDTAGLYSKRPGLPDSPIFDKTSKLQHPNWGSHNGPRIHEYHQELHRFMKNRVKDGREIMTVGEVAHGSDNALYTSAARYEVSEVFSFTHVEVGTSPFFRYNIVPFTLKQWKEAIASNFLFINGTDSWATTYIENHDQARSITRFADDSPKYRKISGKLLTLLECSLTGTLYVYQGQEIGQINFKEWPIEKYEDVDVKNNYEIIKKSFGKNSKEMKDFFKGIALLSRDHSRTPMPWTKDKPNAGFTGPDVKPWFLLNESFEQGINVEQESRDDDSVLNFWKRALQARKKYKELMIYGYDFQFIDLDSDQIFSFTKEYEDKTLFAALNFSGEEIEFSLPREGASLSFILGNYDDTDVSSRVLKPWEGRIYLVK

With `C[C@H]1O[C@H](O[C@H]2[C@H](O)[C@@H](O)[C@@H](O[C@H]3[C@H](O)[C@@H](O)C(O)O[C@@H]3CO)O[C@@H]2CO)[C@H](O)[C@@H](O)[C@@H]1N[C@H]1C=C(CO)[C@@H](O)[C@H](O)[C@H]1O` (some centres unmarked) [Acarbose], at α-glucosidase, the “α-Glucosidase Inhibition (%)” value is 62.33 ± 0.16%.

For `Cc1ccc(/C=C2\SC(=O)N(CC(=O)NCCc3c[nH]c4ccccc34)C2=O)cc1` [compound 7], the “glucose levels in diabetic mice” value in the test on diabetic mice was “suppressed glucose levels in diabetic mice”.

With `Cc1ccc(NS(=O)(=O)c2ccc(-c3csc(N/N=C4\C(=O)Nc5ccc(Cl)cc54)n3)cc2)cc1` [compound 6], the “edema inhibition (EI)” value in test [1] is reported as 38.50%. On COX-2 enzyme, the IC50 was 8.26 µM and the “selectivity against COX-2 (SI)” value is listed as 2.65.

Values taken from paper PMC11946580, “In Vitro Enzymatic and Computational Assessments of Pyrazole–Isatin and Pyrazole–Indole Conjugates as Anti-Diabetic, Anti-Arthritic, and Anti-Inflammatory Agents” (Pharmaceutics, 2025).
